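Assay format: 96-well plates, 48-hour exposure. At the GI50, growth is halved.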 Activity calls are given as the source filed them. No stated cut-off is given here; in the data, active = GI50 up to about 1.1 µM and inactive = higher. Where only a bound is given, the exact number is not on record here.

Among the test systems are LOX IMVI; RPMI-8226; HCC 2998; 786-0; IGROV-1; TK-10; HOP-62; SF-295; RXF 393; SN12C; OVCAR-3; OVCAR-5; KM12; MDA-N; UACC-62; SK-MEL-28; NCI-H460; SNB-75; CCRF-CEM; SK-MEL-5.
Assay in all cases: growth of human tumour cells (NCI), 48 h

For the molecule `Cc1cc(CC(O)(C(F)(F)F)C(F)(F)F)cc(CC(O)(C(F)(F)F)C(F)(F)F)n1`, the GI50 was 2.42 µM (inactive) in the assay with LOX IMVI; 1.61 µM (inactive) in the assay with RPMI-8226; 4.23 µM (inactive) in the assay on HCC 2998; 2.29 µM (inactive) in the assay on 786-0; 3.46 µM (inactive) in the assay with IGROV-1; 4.7 µM (inactive) in the assay with TK-10. Also, the GI50 in the assay with HOP-62 was 3.33 µM (inactive); in the assay with SF-295, 3.06 µM (inactive); with RXF 393, 4.24 µM (inactive); in the assay with SN12C, 3.1 µM (inactive); in the assay on OVCAR-3, 1.01 µM (active); with OVCAR-5 it was 6.79 µM (inactive). For the same molecule, the GI50 in the assay on KM12 was 2.27 µM (inactive); in the assay with MDA-N, 3.88 µM (inactive); with UACC-62, 3.57 µM (inactive); with SK-MEL-28, 3.03 µM (inactive); with NCI-H460, 2.04 µM (inactive); in the assay with SNB-75 it was 2.31 µM (inactive). The GI50 with CCRF-CEM is 3.21 µM (inactive); with SK-MEL-5, 1.72 µM (inactive).

In the case of `Cc1ccc(/C=C2\Sc3scc(-c4ccccc4)[n+]3C2=O)cc1`, the GI50 in the assay on LOX IMVI was 20.6 µM (inactive); in the assay on RPMI-8226, 8.28 µM (inactive); in the assay with HCC 2998, 27.7 µM (inactive); with 786-0, 22.3 µM (inactive); in the assay with IGROV-1, 18 µM (inactive); with TK-10, 19.8 µM (inactive). For the same molecule, the GI50 with HOP-62 is 26.2 µM (inactive); in the assay on SF-295, 24.6 µM (inactive); in the assay on RXF 393 it was 25.9 µM (inactive); in the assay on SN12C, 21.4 µM (inactive); in the assay with OVCAR-3, 31.4 µM (inactive); with OVCAR-5, 33.4 µM (inactive). In addition, the GI50 in the assay with KM12 is 18.5 µM (inactive); in the assay with MDA-N it was 18 µM (inactive); in the assay with UACC-62, 16.7 µM (inactive); in the assay with SK-MEL-28, 51.5 µM (inactive); in the assay on NCI-H460, 16.8 µM (inactive); with SNB-75, 10.8 µM (inactive). The GI50 is 13.6 µM (inactive) with CCRF-CEM and 21.6 µM (inactive) with SK-MEL-5.

For the molecule `CC(=O)[C@H]1CC[C@H]2[C@@H]3CCC4=CC(=O)CC[C@]4(C)[C@H]3CC[C@]12C` [PROGESTERONE], the GI50 is 17.5 µM (inactive) in the assay with LOX IMVI; 3.24 µM (inactive) in the assay on RPMI-8226; 16.9 µM (inactive) in the assay with HCC 2998; 20.6 µM (inactive) in the assay on 786-0; 24.4 µM (inactive) with IGROV-1; 23.9 µM (inactive) in the assay with TK-10. Moreover, the GI50 in the assay with HOP-62 is 20.6 µM (inactive); with SF-295, 25.9 µM (inactive); in the assay on RXF 393, 22.4 µM (inactive); in the assay on SN12C it was 18.6 µM (inactive); with OVCAR-3, 17.3 µM (inactive); in the assay on OVCAR-5, 19.5 µM (inactive). Moreover, the GI50 is 16.7 µM (inactive) in the assay with KM12; 16.7 µM (inactive) in the assay with MDA-N; 14.7 µM (inactive) in the assay on UACC-62; 18.4 µM (inactive) in the assay with SK-MEL-28; 18.6 µM (inactive) in the assay on NCI-H460; 26.1 µM (inactive) in the assay with SNB-75. Further, the GI50 in the assay with CCRF-CEM was 15.7 µM (inactive); with SK-MEL-5 it was 12.1 µM (inactive).

`CC(=O)c1ccc2c(c1)C(=O)c1sc(C(C)=O)cc1C2=O`: the GI50 is 0.22 µM (active) in the assay on LOX IMVI; 1.74 µM (inactive) with RPMI-8226; 3.17 µM (inactive) in the assay on HCC 2998; 1.68 µM (inactive) with 786-0; 1.07 µM (active) with IGROV-1; 1.76 µM (inactive) with TK-10. Further, the GI50 in the assay on HOP-62 is 1.73 µM (inactive); with SF-295, 1.01 µM (active); in the assay on RXF 393 it was 1.3 µM (inactive); in the assay on SN12C, 0.578 µM (active); in the assay on OVCAR-3 it was 0.368 µM (active); in the assay on OVCAR-5 it was 1.08 µM (active). Also, the GI50 in the assay with KM12 was 1.01 µM (active); with MDA-N, 0.796 µM (active); in the assay on UACC-62, 0.995 µM (active); with SK-MEL-28, 2.25 µM (inactive); in the assay on NCI-H460, 1.37 µM (inactive); in the assay with SNB-75, 1.67 µM (inactive). Also, the GI50 is 0.403 µM (active) in the assay on CCRF-CEM and 0.389 µM (active) with SK-MEL-5.

As to `O=C(/C=C/c1ccco1)CC(=O)/C=C/c1ccco1`, the GI50 is 4.99 µM (inactive) in the assay on LOX IMVI; 8.38 µM (inactive) in the assay on RPMI-8226; 12.8 µM (inactive) with HCC 2998; 12.7 µM (inactive) with 786-0; 16.8 µM (inactive) in the assay on IGROV-1; 26.3 µM (inactive) in the assay with TK-10. The GI50 is 11.7 µM (inactive) in the assay on HOP-62; > 10 µM (inactive) with SF-295; 4.58 µM (inactive) in the assay with RXF 393; 10.1 µM (inactive) in the assay on SN12C; > 10 µM (inactive) with OVCAR-3; 16.9 µM (inactive) with OVCAR-5. The GI50 in the assay on KM12 was 28.8 µM (inactive); in the assay on MDA-N it was 8.04 µM (inactive); in the assay with UACC-62, 13.5 µM (inactive); with SK-MEL-28, 12.2 µM (inactive); with NCI-H460 it was 14.4 µM (inactive); with SNB-75, 18 µM (inactive). The values for the GI50 with CCRF-CEM and in the assay on SK-MEL-5 were 6.17 µM (inactive) and 12.3 µM (inactive), respectively.

Consider `Cc1ccc2c(O)cc(-c3ccsc3)nc2n1`, for which the GI50 was 3.62 µM (inactive) in the assay with LOX IMVI; 2.2 µM (inactive) in the assay on RPMI-8226; 5.9 µM (inactive) in the assay with HCC 2998; 4.58 µM (inactive) with 786-0; 4.74 µM (inactive) in the assay with IGROV-1; 26.5 µM (inactive) in the assay on TK-10. Moreover, the GI50 in the assay with HOP-62 was 10.8 µM (inactive); in the assay with SF-295, 3.44 µM (inactive); in the assay on RXF 393, 7.53 µM (inactive); in the assay with SN12C it was 5.83 µM (inactive); with OVCAR-3, 6.46 µM (inactive); with OVCAR-5, 15.8 µM (inactive). Besides, the GI50 is 4.33 µM (inactive) in the assay on KM12; 0.454 µM (active) with MDA-N; 4.61 µM (inactive) in the assay with UACC-62; 7.23 µM (inactive) in the assay on SK-MEL-28; 4.01 µM (inactive) in the assay on NCI-H460; 3.14 µM (inactive) with SNB-75. For the same molecule, the results for the GI50 with CCRF-CEM and with SK-MEL-5 were 6.18 µM (inactive) and 2.71 µM (inactive), respectively.

For the molecule `CC(=O)C(=[N+]=[N-])C(=O)NCC#N`, the GI50 in the assay on LOX IMVI, with RPMI-8226, in the assay on HCC 2998, in the assay on 786-0, in the assay with IGROV-1 and in the assay on TK-10 was > 10 µM (inactive) each time. Besides, the GI50 with HOP-62, with SF-295, in the assay on RXF 393, in the assay on SN12C, in the assay on OVCAR-3 and in the assay on OVCAR-5 was > 10 µM (inactive) throughout. Besides, the GI50 in the assay with KM12 is 6.93 µM (inactive); with MDA-N, > 10 µM (inactive); in the assay on UACC-62, > 10 µM (inactive); in the assay on SK-MEL-28, > 10 µM (inactive); in the assay with NCI-H460, > 10 µM (inactive); with SNB-75, 0.441 µM (active). Moreover, the GI50 with CCRF-CEM and in the assay with SK-MEL-5 was > 10 µM (inactive) in each case.

In the case of `CCOC(=O)Cn1nnc2cc(Nc3nc4ccccc4nc3C(=O)OCC)ccc21`, the GI50 in the assay with LOX IMVI was > 100 µM (inactive); with RPMI-8226, > 100 µM (inactive); in the assay with HCC 2998 it was > 100 µM (inactive); in the assay on 786-0, 67 µM (inactive); with IGROV-1 it was > 100 µM (inactive); in the assay with TK-10 it was 22.5 µM (inactive). The GI50 is 24.4 µM (inactive) with HOP-62; 26.4 µM (inactive) with SF-295; 18.6 µM (inactive) with RXF 393; > 100 µM (inactive) with SN12C; > 100 µM (inactive) with OVCAR-3; > 100 µM (inactive) in the assay on OVCAR-5. The GI50 is > 100 µM (inactive) in the assay on KM12; > 100 µM (inactive) with MDA-N; > 100 µM (inactive) in the assay with UACC-62; > 100 µM (inactive) in the assay on SK-MEL-28; > 100 µM (inactive) with NCI-H460; 4.21 µM (inactive) with SNB-75. Also, the GI50 in the assay on CCRF-CEM and with SK-MEL-5 was > 100 µM (inactive) throughout.

Take `ClCc1nn(-c2ccccc2)c(CCl)c1CCl`: the GI50 with LOX IMVI is 1.47 µM (inactive); in the assay with RPMI-8226, 2.52 µM (inactive); with HCC 2998, 12.1 µM (inactive); in the assay with 786-0 it was 2.56 µM (inactive); with IGROV-1 it was 3.44 µM (inactive); with TK-10, 8.39 µM (inactive). In addition, the GI50 in the assay with HOP-62 is 15.8 µM (inactive); in the assay on SF-295, 6 µM (inactive); with RXF 393, 4.82 µM (inactive); in the assay with SN12C, 3.11 µM (inactive); in the assay with OVCAR-3, 3.47 µM (inactive); in the assay on OVCAR-5 it was 7.16 µM (inactive). Also, the GI50 with KM12 is 3.37 µM (inactive); in the assay with MDA-N, 2.88 µM (inactive); with UACC-62, 3.47 µM (inactive); with SK-MEL-28, 5.32 µM (inactive); in the assay on NCI-H460, 2.66 µM (inactive); with SNB-75 it was 1.74 µM (inactive). Besides, the GI50 in the assay on CCRF-CEM is 1.17 µM (inactive); in the assay on SK-MEL-5 it was 2.68 µM (inactive).

For the origin of these results see ChEMBL document CHEMBL1201862, “PubChem BioAssay data set” (2004).
